Measurements: US11884682B2, “Compounds and their uses as MIF inhibitors” (NANJING IMMUNOPHAGE BIOTECH CO., LTD., priority 2020, dated 2024)

Experiments:
BV2 cells = test: BV2 cell proliferation assay (CCK-8); type: cell-based; conditions: Mus musculus, BV-2, 48 h treatment, CCK-8, top concentration 33.3 μM, mean pIC50 of multiple test results, read-out: BV2 Profileration pIC50 (converted)
Description: (§1) The assay measures the ability of a compound to inhibit cell proliferation using Cell Counting Kit-8 (CCK-8), which allows sensitive colorimetric assays for the determination of cell viability in cell proliferation and cytotoxicity assays. The highly water-soluble tetrazolium salt, WST-8, is reduced by dehydrogenase activities in cells to give a yellow-color formazan dye, which is soluble in the tissue culture media. The amount of the formazan dye, generated by the activities of dehydrogenases in cells, is directly proportional to the number of living cells.
(§2) The assay was performed based on the instruction of the manufacturer (Dojindo Molecular Technologies Inc., Rockville, MD, USA). To start the assay, BV2 cells were seeded at a density of […] into 96-well plates and treated with test compounds, which were used at a top final assay concentration of 33.3 μM, diluted in assay medium with 1:3 dilutions to produce 10 point concentration responses, for 48 h. After incubation, the CCK-8 solution (10 μl) was added to each well of the plate and the plates were incubated in incubator at 37° C. for 3 h. Absorbance was recorded three times independently using a microplate reader (Bio-Rad Laboratories, Richmond, CA, USA) at 450 nm.
Selected examples were tested in the BV2 cell proliferation. The data mentioned below represents a mean pIC50 value of multiple test results. It is understood that the data illustrated below may have reasonable variation depending on the specific conditions and procedures used by the person conducting the testing.

MIF = MIF (Homo sapiens (Human), UniProt P14174); test: MIF tautomerase assay using pHPP as substrate; type: biochemical; conditions: cell-free, pHPP substrate 1.5 mM, MIF 3 nM; mean pIC50 of multiple test results
Experimental: Tautomerase Assay Using pHPP as substrate
This assay measured MIF's tautomerase activity in a cell-free system and was based on the determination of initial rates of the MIF-catalyzed conversion of the ketonic into the enolic tautomer of pHPP. This was achieved by spectrophotometric quantification of the complex between borate and the product of the reaction (enolic pHPP). The substrate was prepared by conversion of the enolic pHPP into its ketonic form. To achieve this, 0.5 M pHPP in methanol was diluted 10-fold with 50 mM sodium acetate buffer at pH 6.0, and then the suspension was shaken for 24 h at room temperature in darkness, and finally stored at 4° C. for not more than 1 week, with 5 min sonication being recommended before use.
Assays were performed in small-volume clear-bottom black 96 or 384-well polystyrene plates (Greiner Bio-One). First, 2 μL of the enzyme solution containing 6 nM of MIF in DPBS, 0.025% w/v BSA, and 300 μM CHAPS was dispensed onto sample and negative control wells using Multidrop Combi with metallic tip cassettes (Thermo Fisher Scientific) previously treated with Sigmacote. Then, 2 μL of the same buffer without MIF was dispensed onto positive control wells. The reaction was started by addition of the following to all wells: 2 μL of substrate solution containing 3 mM ketonic pHPP in 200 mM boric acid, 25 mM sodium phosphate, 0.025% w/v BSA, and 300 μM CHAPS at pH 6.0. In order to remove bubbles, the plate was centrifuged in an Allegra 25R centrifuge (Beckman Coulter, Inc., Brea, CA) at 1000 rpm for 2 min at room temperature. Then, the plate was read in an EnVision. Final concentrations of enzyme and substrate were 3 nM and 1.5 mM, respectively. Initial rates were calculated for each well as the slope of the absorbance progress curve.
The data mentioned below represents a mean pIC50 value of multiple test results. It is understood that the data illustrated below may have reasonable variation depending on the specific conditions and procedures used by the person conducting the testing.

U251 cell = U251 cell proliferation assay (CCK-8); type: cell-based; conditions: Homo sapiens, U-251; U251 cells; read-out: U251 Profileration pIC50 (converted)
Description: [The source words this procedure for another cell line and reports this cell line under the same test.] as §1, §2

Chain of MIF (P14174 2-115): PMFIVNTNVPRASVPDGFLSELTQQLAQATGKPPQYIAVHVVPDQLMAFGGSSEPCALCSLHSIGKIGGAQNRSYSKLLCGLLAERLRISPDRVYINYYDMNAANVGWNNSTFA

Compound | IC50 (BV2 cells) [µM] | Tautomerase Inhibition pIC50 (MIF) | IC50 (U251 cell) [µM]
COc1cc(OCCO)ccc1C(=O)Nc1nnc(-c2cccs2)o1 [Compound 17, 4-(2-hydroxyethoxy)-2-methoxy-N-(5-(thiophen-2-yl)-1,3,4-oxadiazol-2-yl)benzamide] | 11.5 | 7.98 | > 1000
COc1cc(OCC(=O)O)ccc1C(=O)Nc1nnc(-c2cccs2)o1 [Compound 19, 2-(3-methoxy-4-((5-(thiophen-2-yl)-1,3,4-oxadiazol-2-yl)carbamoyl)phenoxy)acetic acid] | > 1000 | – | > 1000
COc1cc(OC(C)(C)C(=O)O)ccc1C(=O)Nc1nnc(-c2cccs2)o1 [Compound 21, 2-(3-methoxy-4-((5-(thiophen-2-yl)-1,3,4-oxadiazol-2-yl)carbamoyl)phenoxy)-2-methyl propanoic acid] | > 1000 | – | > 1000
COc1cc(OCc2nn[nH]n2)ccc1C(=O)Nc1nnc(-c2cccs2)o1 [Compound 22, 4-((2H-tetrazol-5-yl)methoxy)-2-methoxy-N-(5-(thiophen-2-yl)-1,3,4-oxadiazol-2-yl)benzamide] | > 1000 | 7.91 | > 1000
O=C(NCc1nnc(-c2cccs2)o1)c1ccccc1F [Compound 44, 2-fluoro-N-((5-(thiophen-2-yl)-1,3,4-oxadiazol-2-yl)methyl)benzamide] | 45.7 | <5 | > 1000
COc1cccc(OC)c1C(=O)NCc1nnc(-c2cccs2)o1 [Compound 46, 2,6-dimethoxy-N-((5-(thiophen-2-yl)-1,3,4-oxadiazol-2-yl)methyl)benzamide] | > 1000 | 3.70 | > 1000
O=C(NCc1nnc(-c2cccs2)o1)C1CCCCC1 [Compound 49, N-((5-(thiophen-2-yl)-1,3,4-oxadiazol-2-yl)methyl)cyclohexanecarboxamide] | – | <5 | –
CN1CCC(C(=O)NCc2nnc(-c3cccs3)o2)CC1 [Compound 50, 1-methyl-N-((5-(thiophen-2-yl)-1,3,4-oxadiazol-2-yl)methyl)piperidine-4-carboxamide] | – | <5 | –
COc1cc(N2CCOCC2)ccc1C(=O)NCc1nnc(-c2cccs2)o1 [Compound 51, 2-methoxy-4-morpholino-N-((5-(thiophen-2-yl)-1,3,4-oxadiazol-2-yl)methyl)benzamide] | 13.2 | 6.29 | > 1000
CCN(Cc1nnc(-c2cccs2)o1)C(=O)c1ccc(N2CCOCC2)cc1OC [Compound 53, N-ethyl-2-methoxy-4-morpholino-N-((5-(thiophen-2-yl)-1,3,4-oxadiazol-2-yl)methyl)benzamide] | – | <5 | –
COc1c(C(=O)NCc2nnc(-c3cccs3)o2)cccc1N1CCOCC1 [Compound 54, 2-methoxy-3-morpholino-N-((5-(thiophen-2-yl)-1,3,4-oxadiazol-2-yl)methyl)benzamide] | – | <5 | –
COc1cc(N2CC(C)OC(C)C2)ccc1C(=O)NCc1nnc(-c2cccs2)o1 (stereo not drawn) [Compound 55, 4-(2,6-dimethylmorpholino)-2-methoxy-N-((5-(thiophen-2-yl)-1,3,4-oxadiazol-2-yl)methyl)benzamide] | – | 6.22 | –
COc1cc(N2CC3CC(C2)O3)ccc1C(=O)NCc1nnc(-c2cccs2)o1 [Compound 57, 4-(6-oxa-3-azabicyclo[3.1.1]heptan-3-yl)-2-methoxy-N-((5-(thiophen-2-yl)-1,3,4-oxadiazol-2-yl)methyl)benzamide] | – | 6.29 | –
COc1cc(N2CCOCC2)ccc1C(=O)NCc1nnc(-c2ccns2)o1 [Compound 61, N-((5-(isothiazol-5-yl)-1,3,4-oxadiazol-2-yl)methyl)-2-methoxy-4-morpholinobenzamide] | – | <5 | –
COc1cc(N2CCOCC2)ccc1C(=O)NCc1nnc(-c2nccs2)o1 [Compound 62, 2-methoxy-4-morpholino-N-((5-(thiazol-2-yl)-1,3,4-oxadiazol-2-yl)methyl)benzamide] | – | <5 | –
COc1cc(N2CCOCC2)ccc1C(=O)NCc1nnc(-c2ccc(Cl)s2)o1 [Compound 64, N-((5-(5-chlorothiophen-2-yl)-1,3,4-oxadiazol-2-yl)methyl)-2-methoxy-4-morpholinobenzamide] | – | 4.79 | –
COc1cc(N2CCOCC2)ccc1C(=O)NC(C)(C)c1nnc(-c2cccs2)o1 [Compound 65, 2-methoxy-4-morpholino-N-(2-(5-(thiophen-2-yl)-1,3,4-oxadiazol-2-yl)propan-2-yl)benzamide] | – | <5 | –
COc1cc(N2CCOCC2)ccc1C(=O)NC1(c2nnc(-c3cccs3)o2)CC1 [Compound 66, 2-methoxy-4-morpholino-N-(1-(5-(thiophen-2-yl)-1,3,4-oxadiazol-2-yl)cyclopropyl)benzamide] | – | <5 | –
COc1cc(N2CCOCC2)ccc1C(=O)N(C)C(C)(C)c1nnc(-c2cccs2)o1 [Compound 68, 2-methoxy-N-methyl-4-morpholino-N-(2-(5-(thiophen-2-yl)-1,3,4-oxadiazol-2-yl)propan-2-yl)benzamide] | – | 3.23 | –
COc1cc(OCCN2CCOCC2)ccc1C(=O)NCc1nnc(-c2cccs2)o1 [Compound 69, 2-methoxy-4-(2-morpholinoethoxy)-N-((5-(thiophen-2-yl)-1,3,4-oxadiazol-2-yl)methyl)benzamide] | 44.7 | – | > 1000
COc1cc(OCCO)ccc1C(=O)NCc1nnc(-c2cccs2)o1 [Compound 70, 4-(2-hydroxyethoxy)-2-methoxy-N-((5-(thiophen-2-yl)-1,3,4-oxadiazol-2-yl)methyl)benzamide] | – | 6.12 | –
COCCOc1ccc(C(=O)NCc2nnc(-c3cccs3)o2)c(OC)c1 [Compound 71, 2-methoxy-4-(2-methoxyethoxy)-N-((5-(thiophen-2-yl)-1,3,4-oxadiazol-2-yl)methyl)benzamide] | – | 6.21 | –
COc1cc(N2CCC(O)C2)ccc1C(=O)NCc1nnc(-c2cccs2)o1 (stereo not drawn) [Compound 78, 4-(3-hydroxypyrrolidin-1-yl)-2-methoxy-N-((5-(thiophen-2-yl)-1,3,4-oxadiazol-2-yl)methyl)benzamide] | 79.4 | – | > 1000
COc1cc(NCCO)ccc1C(=O)NCc1nnc(-c2cccs2)o1 [Compound 79, 4-((2-hydroxyethyl)amino)-2-methoxy-N-((5-(thiophen-2-yl)-1,3,4-oxadiazol-2-yl)methyl)benzamide] | > 1000 | – | > 1000
CNCCOc1ccc(C(=O)NCc2nnc(-c3cccs3)o2)c(OC)c1 [Compound 80, 2-methoxy-4-(2-(methylamino)ethoxy)-N-((5-(thiophen-2-yl)-1,3,4-oxadiazol-2-yl)methyl)benzamide] | 26.3 | – | > 1000
COc1cc(OC2CCNC2)ccc1C(=O)NCc1nnc(-c2cccs2)o1 (stereo not drawn) [Compound 81, 2-methoxy-4-(pyrrolidin-3-yloxy)-N-((5-(thiophen-2-yl)-1,3,4-oxadiazol-2-yl)methyl)benzamide] | > 1000 | – | 35.5
COc1cc(C(C)(C)O)ccc1C(=O)NCc1nnc(-c2cccs2)o1 [Compound 83, 4-(2-hydroxypropan-2-yl)-2-methoxy-N-((5-(thiophen-2-yl)-1,3,4-oxadiazol-2-yl)methyl)benzamide] | > 1000 | – | > 1000
